One test deals with T1, CFTR ΔF508 mutant (Homo sapiens, UniProt P13569, DEL508-508).
T1 construct: expressed in transfected cells; host or cells: CFBE41o- cells, adenoviral transduction
As to the kind of experiment: YFP-halide influx assay for the CFTR-ΔF508 mutation (CFBE41o- cells). As to conditions: forskolin 10.67 μM; for pEC50: from (1−F/F0) vs concentration plot. It is filed as cell-based. The method, boiled down:
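CFBE41o- cells transduced with adenovirus expressing CFTR ΔF508 and halide-sensitive YFP H148Q/I152L/F47L, then held 24 h at 27° C or with a CFTR modulator 24 h at 37° C. Iodide-induced quench recorded 2 min; EC50 from (1−F/F0) at 36 s versus concentration.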

Another test addresses T2, CFTR G551D mutant (Homo sapiens, UniProt P13569, G551D).
T2 construct: expressed in transfected cells; host or cells: HEK293 cells, reverse transfection with plasmids
As to the kind of experiment: YFP-halide influx assay for the CFTR-G551D mutation (HEK293 cells). It is filed as cell-based. As to conditions: forskolin 10.67 μM. The method, boiled down: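 HEK293 cells reverse-transfected with CFTR G551D and halide-sensitive YFP (H148Q/I152L/F47L), expressed 24 h at 37 °C. YFP fluorescence quenching recorded for 7 s after I⁻ injection. Response = 1−F/F0; EC50 derived from 1−F/F0 vs compound concentration.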

pEC50: −log10 of the molar value.

T1 sequence (P13569 with tags, fused parts or gaps DEL508-508): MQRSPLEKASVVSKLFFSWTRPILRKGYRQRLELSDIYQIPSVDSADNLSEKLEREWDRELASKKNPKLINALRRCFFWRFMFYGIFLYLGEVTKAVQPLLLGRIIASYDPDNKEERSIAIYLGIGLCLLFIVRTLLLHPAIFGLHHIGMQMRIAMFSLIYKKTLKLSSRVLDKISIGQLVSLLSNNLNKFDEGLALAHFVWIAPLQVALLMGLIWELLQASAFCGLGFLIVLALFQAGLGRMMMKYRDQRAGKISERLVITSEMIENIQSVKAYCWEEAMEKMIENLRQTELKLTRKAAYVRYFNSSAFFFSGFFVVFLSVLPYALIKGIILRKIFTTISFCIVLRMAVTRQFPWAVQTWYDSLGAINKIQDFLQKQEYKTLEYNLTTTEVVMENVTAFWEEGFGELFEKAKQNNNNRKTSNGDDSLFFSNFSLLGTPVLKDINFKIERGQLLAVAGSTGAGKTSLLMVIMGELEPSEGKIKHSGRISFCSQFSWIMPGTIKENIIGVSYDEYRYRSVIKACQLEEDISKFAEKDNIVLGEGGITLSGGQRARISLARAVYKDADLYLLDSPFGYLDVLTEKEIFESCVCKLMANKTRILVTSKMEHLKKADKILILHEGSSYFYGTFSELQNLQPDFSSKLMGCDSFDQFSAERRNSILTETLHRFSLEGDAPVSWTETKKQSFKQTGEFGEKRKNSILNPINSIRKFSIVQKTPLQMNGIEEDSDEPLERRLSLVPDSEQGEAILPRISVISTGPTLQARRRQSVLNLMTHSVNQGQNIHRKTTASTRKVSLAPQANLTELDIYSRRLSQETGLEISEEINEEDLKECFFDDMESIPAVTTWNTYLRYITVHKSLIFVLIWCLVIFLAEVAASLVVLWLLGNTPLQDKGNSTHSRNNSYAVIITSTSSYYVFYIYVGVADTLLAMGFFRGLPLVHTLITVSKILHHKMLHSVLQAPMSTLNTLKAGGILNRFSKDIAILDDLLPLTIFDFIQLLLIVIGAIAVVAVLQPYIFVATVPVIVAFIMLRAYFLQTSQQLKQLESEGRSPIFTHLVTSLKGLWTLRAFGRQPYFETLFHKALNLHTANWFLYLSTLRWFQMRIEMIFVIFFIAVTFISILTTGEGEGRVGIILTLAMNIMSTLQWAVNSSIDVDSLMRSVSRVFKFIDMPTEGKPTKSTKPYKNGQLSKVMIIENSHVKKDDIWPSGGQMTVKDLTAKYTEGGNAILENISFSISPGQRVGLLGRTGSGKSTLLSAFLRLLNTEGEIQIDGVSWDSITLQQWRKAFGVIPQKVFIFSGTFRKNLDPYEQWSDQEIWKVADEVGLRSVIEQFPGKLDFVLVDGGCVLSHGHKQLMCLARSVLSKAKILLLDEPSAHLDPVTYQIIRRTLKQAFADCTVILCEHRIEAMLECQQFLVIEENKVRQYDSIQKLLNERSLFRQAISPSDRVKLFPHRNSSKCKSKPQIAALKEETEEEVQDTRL
T2 sequence (P13569 whole entry G551D): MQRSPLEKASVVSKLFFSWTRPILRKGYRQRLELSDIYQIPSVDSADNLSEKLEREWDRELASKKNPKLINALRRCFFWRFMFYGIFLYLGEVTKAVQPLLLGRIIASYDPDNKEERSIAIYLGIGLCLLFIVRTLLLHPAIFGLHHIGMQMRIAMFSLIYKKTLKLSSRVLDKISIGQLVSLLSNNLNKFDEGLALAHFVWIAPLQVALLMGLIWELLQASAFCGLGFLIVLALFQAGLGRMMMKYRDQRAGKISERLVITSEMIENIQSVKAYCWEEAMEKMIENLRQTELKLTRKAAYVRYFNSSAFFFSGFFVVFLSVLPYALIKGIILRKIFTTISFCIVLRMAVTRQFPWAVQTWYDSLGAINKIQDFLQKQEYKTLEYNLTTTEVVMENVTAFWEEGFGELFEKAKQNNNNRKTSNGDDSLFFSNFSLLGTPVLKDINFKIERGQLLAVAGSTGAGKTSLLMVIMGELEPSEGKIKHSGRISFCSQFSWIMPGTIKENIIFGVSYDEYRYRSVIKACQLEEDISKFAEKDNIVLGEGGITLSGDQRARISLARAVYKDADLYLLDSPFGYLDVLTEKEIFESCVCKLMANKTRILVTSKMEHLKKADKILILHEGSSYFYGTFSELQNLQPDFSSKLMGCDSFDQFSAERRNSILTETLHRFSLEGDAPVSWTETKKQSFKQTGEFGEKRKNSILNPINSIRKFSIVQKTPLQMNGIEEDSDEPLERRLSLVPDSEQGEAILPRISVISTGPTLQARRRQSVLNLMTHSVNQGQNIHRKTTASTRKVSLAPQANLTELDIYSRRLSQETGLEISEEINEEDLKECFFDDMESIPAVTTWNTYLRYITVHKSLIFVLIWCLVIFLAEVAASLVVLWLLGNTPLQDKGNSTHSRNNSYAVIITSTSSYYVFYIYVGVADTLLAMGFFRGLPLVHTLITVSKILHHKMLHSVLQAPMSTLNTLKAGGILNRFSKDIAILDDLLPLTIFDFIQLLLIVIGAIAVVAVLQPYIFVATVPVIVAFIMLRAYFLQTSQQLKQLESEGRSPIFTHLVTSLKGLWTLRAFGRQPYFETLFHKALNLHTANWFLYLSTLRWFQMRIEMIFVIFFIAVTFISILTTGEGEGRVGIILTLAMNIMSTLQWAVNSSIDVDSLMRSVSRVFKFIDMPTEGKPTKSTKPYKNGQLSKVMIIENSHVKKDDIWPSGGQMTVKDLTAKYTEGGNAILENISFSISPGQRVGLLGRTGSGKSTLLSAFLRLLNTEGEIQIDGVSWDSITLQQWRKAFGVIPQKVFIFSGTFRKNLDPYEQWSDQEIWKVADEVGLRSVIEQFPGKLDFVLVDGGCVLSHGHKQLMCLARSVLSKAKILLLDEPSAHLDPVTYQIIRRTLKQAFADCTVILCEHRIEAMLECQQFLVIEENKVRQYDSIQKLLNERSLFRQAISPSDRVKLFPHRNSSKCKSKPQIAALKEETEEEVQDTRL

Regarding `COc1ccc(CN(C)S(=O)(=O)c2cnc(C(=O)NCC(O)C(F)(F)F)c(N)c2)cc1` (stereo not drawn) [Compound 138, 3-amino-5-[(4-methoxybenzyl)(methyl)sulfamoyl]-N-(3,3,3-trifluoro-2-hydroxypropyl)pyridine-2-carboxamide], at CFTR ΔF508 mutant, the “% Activation” value is 94.5% and the pEC50 was 7.75. On CFTR G551D mutant, the “% Activation” value is given as 49.6% and the pEC50 was 6.17.

`Nc1cc(S(=O)(=O)c2cccc(F)c2)cnc1C(=O)N1CC(O)(C(F)(F)F)C1` [Compound 256, {3-amino-5-[(3-fluorophenyl)sulfonyl]pyridin-2-yl}[3-hydroxy-3-(trifluoromethyl)azetidin-1-yl]methanone]: at CFTR ΔF508 mutant, the “% Activation” value is listed as 107.4% and the pEC50 is 9.18. At CFTR G551D mutant, the “% Activation” value is on record as 45.6% and the pEC50 is < 5.48.

Turning to `CC(C)C1(O)CN(C(=O)c2ncc(S(=O)(=O)c3ccc(C(F)(F)F)cc3F)cc2N)C1` [Compound 162, (3-amino-5-{[2-fluoro-4-(trifluoromethyl)phenyl]sulfonyl}pyridin-2-yl)[3-hydroxy-3-(propan-2-yl)azetidin-1-yl]methanone], at CFTR ΔF508 mutant, the “% Activation” value is 101.8% and the pEC50 is 8.57. Besides, at CFTR G551D mutant, the “% Activation” value is 68.0% and the pEC50 is 6.59.

On to `CC(C)OCC(O)CNC(=O)c1ncc(S(=O)(=O)c2ccc(OC(F)(F)F)cc2F)cc1N` (stereo not drawn) [Compound 168, 3-amino-5-{[2-fluoro-4-(trifluoromethoxy)phenyl]sulfonyl}-N-[2-hydroxy-3-(propan-2-yloxy)propyl]pyridine-2-carboxamide], for which the “% Activation” value on CFTR ΔF508 mutant is recorded as 103.5%; at CFTR G551D mutant, 82.4%. In addition, the pEC50 on CFTR ΔF508 mutant is 8.02; on CFTR G551D mutant it was 6.27.

`Nc1cc(S(=O)(=O)c2ccc(OC(F)(F)F)cc2)cnc1C(=O)NCC1(CO)CCC1` [Compound 23, 3-amino-N-{[1-(hydroxymethyl)cyclobutyl]methyl}-5-{[4-(trifluoromethoxy)phenyl]sulfonyl}pyridine-2-carboxamide]: the “% Activation” value on CFTR ΔF508 mutant came out at 103.9%; at CFTR G551D mutant, 57.4%. For the same compound, the pEC50 on CFTR ΔF508 mutant was 7.11; on CFTR G551D mutant it was 5.67.

Turning to `CN1CC[C@@H](NC(=O)c2ncc(S(=O)(=O)c3ccc(OC(F)(F)F)cc3)cc2N)C1` [Compound 208, 3-amino-N-[(3R)-1-methylpyrrolidin-3-yl]-5-{[4-(trifluoromethoxy)phenyl]sulfonyl}pyridine-2-carboxamide], on CFTR ΔF508 mutant, the “% Activation” value is 70.5% and the pEC50 is 6.54. On CFTR G551D mutant, the “% Activation” value amounted to 20.0% and the pEC50 is < 5.00.

In the case of `Nc1cc(S(=O)(=O)c2ccc(C(F)(F)F)cc2)cnc1C(=O)NC[C@@H](O)COCC(F)(F)F` [Compound 248, 3-amino-N-[(2R)-2-hydroxy-3-(2,2,2-trifluoroethoxy)propyl]-5-{[4-(trifluoromethyl)phenyl]sulfonyl}pyridine-2-carboxamide], the “% Activation” value on CFTR ΔF508 mutant is 105.0%; on CFTR G551D mutant it was 91.1%. Moreover, the figures for the pEC50 on CFTR ΔF508 mutant and on CFTR G551D mutant were 7.92 and 6.41, respectively.

As to `Nc1cc(S(=O)(=O)c2ccc(OC(F)(F)F)cc2)cnc1C(=O)NC1CCOCC1` [Compound 146, 3-amino-N-(tetrahydro-2H-pyran-4-yl)-5-{[4-(trifluoromethoxy)phenyl]sulfonyl}pyridine-2-carboxamide], on CFTR ΔF508 mutant, the “% Activation” value was determined as 88.4% and the pEC50 is 7.04. Moreover, on CFTR G551D mutant, the “% Activation” value is recorded as 58.4% and the pEC50 is 5.51.

For the compound `CC1CCOCC1CNC(=O)c1ncc(S(=O)(=O)c2ccc(OC(F)(F)F)cc2)cc1N` (stereo not drawn) [Compound 156, 3-amino-N-[(4-methyltetrahydro-2H-pyran-3-yl)methyl]-5-{[4-(trifluoromethoxy)phenyl]sulfonyl}pyridine-2-carboxamide], on CFTR ΔF508 mutant, the “% Activation” value turned out to be 94.0% and the pEC50 was 6.62. Further, on CFTR G551D mutant, the “% Activation” value came to 63.5% and the pEC50 was 5.86.

In general, pEC50 refers to −log10 of the EC50, conventionally taken in molar units. The low end stands for a large EC50, the high end for a small EC50.
